{"source": "patent US5475007A", "about": "“1,2,3,4-tetrahydroquinoline-2,3,4-trione-3 or 4-oximes and the use thereof” (priority 1993, dated 1995)", "key": {"[1]": {"test_system": "glycine binding site of the NMDA receptor", "conditions": "cited from earlier work"}, "[2]": {"conditions": "in words; cited from earlier work"}, "[3]": {"conditions": "cited from earlier work; for PCP-like behavioral side effects: in words"}, "[4]": {"conditions": "in words; cited from earlier work", "remark": "listed apart in the source"}, "[5]": {"target": "glycine binding site of the NMDA receptor (Rattus norvegicus, UniProt P35439)", "experiment": "1 μM glycine-stimulated [^3 H]-MK801 binding assay (glycine binding assay)", "conditions": "for potency relative to DCK: DCK = 5,7-dichlorokynurenic acid; for binding to the glycine receptor / selectivity for the glycine receptor: in words"}, "[6]": {"experiment": "mouse maximum electroshock seizure model (i.p.)", "assay_type": "in vivo", "conditions": "70 mg/kg i.p. in DMSO, 1 hour before stimulus, 10 mice", "method": "5,7-Dichloro-1,2,3,4-tetrahydroquinoline-2,3,4-trione-3-oxime was evaluated for anticonvulsant activity after i.p. administration in the mouse maximum electroshock seizure model. Mice, 30-35 g (male) were injected i.p. with 70 mg/kg of the drug dissolved in DMSO (1 ul/g). Ten mice each were used in the drug and control groups. The control group was injected with an equal volume of DMSO. Seizures were elicited by stimulation with corneal electrodes. The stimulation parameters for eliciting the seizures were as follows: 50 mA, 60 pulses/second square wave, 0.8 ms pulse width, 0.2 sec length of stimulus. Under these conditions, 100% of control animals developed tonic hindlimb extension immediately after the corneal electrical stimulation. A Hugo Basile electroshock seizure stimulator was used for these experiments. The seizure stimulus was applied 1 hour after injection of the drug."}, "PCP receptor": {"target": "PCP receptor", "conditions": "Wong et al. 1986; cited from earlier work"}, "[7]": {"conditions": "pigeons; cited from earlier work"}, "[8]": {"conditions": "Table 1, glycine binding site, read-out: Ki Gly"}}, "note": "Like-named read-outs stand apart in the source and are kept apart here.", "data": [{"smiles": "NC1CCN(O)C1=O", "note": "(racemic) [HA-966]", "values": [{"measurement": "agonism and affinity at the glycine binding site", "setting": "[1]; in words", "result": "partial agonist with micromolar affinity for the glycine binding site"}, {"measurement": "penetration of the blood/brain barrier", "setting": "[2]", "result": "sufficiently penetrates the blood/brain barrier"}]}, {"smiles": "O=C(O)c1cc(O)c2c(Cl)cc(Cl)cc2n1", "note": "[5,7-dichlorokynurenic acid]", "values": [{"measurement": "receptor binding affinity in vitro", "setting": "[1]; in words", "result": "relatively high receptor binding affinity in vitro"}]}, {"smiles": "O=C(O)c1cc(O)c2ccc(Cl)cc2n1", "note": "[7-Cl-kynurenic acid]", "values": [{"measurement": "receptor binding affinity in vitro", "setting": "[1]; in words", "result": "relatively high receptor binding affinity in vitro"}, {"measurement": "penetration of the blood/brain barrier", "setting": "[2]", "result": "cannot penetrate the blood/brain barrier"}]}, {"smiles": "O=C(O)[C@@H]1C[C@H](CP(=O)(O)O)CCN1", "note": "[CGS 19755]", "values": [{"measurement": "PCP-like behavioral side effects", "setting": "[3]", "result": "adverse PCP-like behavioral side effects"}, {"measurement": "neuroprotective efficacy", "setting": "[4]", "result": "have neuroprotective efficacy"}]}, {"smiles": "O=C1Nc2ccccc2C(=NO)C1=O", "note": "[Compound 14a, 1,2,3,4-Tetrahydroquinoline-2,3,4-trione-4-oxime]", "values": [{"measurement": "IC50", "setting": "[5]; 1 μM glycine", "result": 18.4, "unit": "µM"}, {"measurement": "potency relative to DCK", "setting": "[5]", "result": "14 % of DCK"}, {"measurement": "Ki", "setting": "[5]; [8]", "result": 1.7, "unit": "µM"}, {"measurement": "binding to the glycine receptor", "setting": "[5]", "result": "high binding"}, {"measurement": "selectivity for the glycine receptor", "setting": "[5]", "result": "highly selective"}]}, {"smiles": "O=C1Nc2ccccc2C(=O)C1=NO", "note": "[Compound 17a, 1,2,3,4-Tetrahydroquinoline-2,3,4-trione-3-oxime]", "values": [{"measurement": "Ki", "setting": "[5]", "result": 20, "unit": "µM"}, {"measurement": "potency relative to DCK", "setting": "[5]", "result": "1.3 % of DCK"}, {"measurement": "binding to the glycine receptor", "setting": "[5]", "result": "high binding"}, {"measurement": "selectivity for the glycine receptor", "setting": "[5]", "result": "highly selective"}]}, {"smiles": "O=C1Nc2cc(Cl)cc(Cl)c2C(=O)C1=NO", "note": "[Compound 17b, 5,7-Dichloro-1,2,3,4-tetrahydroquinoline-2,3,4-trione-3-oxime]", "values": [{"measurement": "Ki", "setting": "[5]", "result": 0.02, "unit": "µM"}, {"measurement": "potency relative to DCK", "setting": "[5]", "result": "1126 % of DCK"}, {"measurement": "times more active than the unsubstituted compound 17a", "setting": "[5]; Ki ratio versus 17a", "result": "about 1000 times"}, {"measurement": "prevention of seizures", "setting": "[6]", "result": "prevented seizures from occurring in out of 10 animals"}]}, {"smiles": "O=C1Nc2cc(Cl)c(Cl)cc2C(=O)C1=NO", "note": "[Compound 17c, 6,7-Dichloro-1,2,3,4-tetrahydroquinoline-2,3,4-trione-3-oxime]", "values": [{"measurement": "Ki", "setting": "[5]", "result": 0.05, "unit": "µM"}, {"measurement": "potency relative to DCK", "setting": "[5]", "result": "439 % of DCK"}]}, {"smiles": "O=C1Nc2ccc(Cl)c(Cl)c2C(=O)C1=NO", "note": "[Compound 17d, 5,6-Dichloro-1,2,3,4-tetrahydroquinoline-2,3,4-trione-3-oxime]", "values": [{"measurement": "Ki", "setting": "[5]", "result": 0.36, "unit": "µM"}, {"measurement": "potency relative to DCK", "setting": "[5]", "result": "about 55 % of DCK"}]}, {"smiles": "O=C1Nc2cc(Cl)c(Cl)c(Cl)c2C(=O)C1=NO", "note": "[Compound 17e, 5,6,7-Trichloro-1,2,3,4-tetrahydroquinoline-2,3,4-trione-3-oxime]", "values": [{"measurement": "Ki", "setting": "[5]", "result": 0.05, "unit": "µM"}, {"measurement": "potency relative to DCK", "setting": "[5]", "result": "about 400 % of DCK"}]}, {"smiles": "CC(=O)ON=C1C(=O)Nc2cc(Cl)cc(Cl)c2C1=O", "note": "[Compound 18b, 5,7-Dichloro-1,2,3,4-tetrahydroquinoline-2,3,4-trione-3-acetyloxime]", "values": [{"measurement": "potency relative to DCK", "setting": "[5]", "result": "142 % of DCK"}, {"measurement": "Ki", "setting": "[5]; [8]", "result": 0.15, "unit": "µM"}, {"measurement": "Ki", "setting": "[5]; glycine/NMDA receptor, read-out: Ki value", "result": 0.16, "unit": "µM"}]}, {"smiles": "O=C(O)[C@@H]1C[C@H]2C[C@@H](CP(=O)(O)O)CC[C@H]2CN1", "note": "[LY274614]", "values": [{"measurement": "neuroprotective efficacy", "setting": "[4]", "result": "have neuroprotective efficacy"}]}, {"smiles": "C[C@]12N[C@H](Cc3ccccc31)c1ccccc12", "note": "[MK-801]", "values": [{"measurement": "Kd", "setting": "PCP receptor", "result": "~0.003", "unit": "µM"}, {"measurement": "PCP-like behavioral side effects", "setting": "[3]", "result": "adverse PCP-like behavioral side effects"}, {"measurement": "neuroprotective efficacy", "setting": "[4]", "result": "neuroprotective efficacy both in vitro and in vivo"}]}, {"smiles": "c1ccc(C2(N3CCCCC3)CCCCC2)cc1", "note": "[PCP, phencyclidine]", "values": [{"measurement": "behavioral excitation (hyperlocomotion)", "setting": "[3]; rodents", "result": "behavioral excitation"}, {"measurement": "neuroprotective efficacy", "setting": "[4]", "result": "neuroprotective efficacy both in vitro and in vivo"}, {"measurement": "katalepsy", "setting": "[7]", "result": "characteristic katalepsy in pigeons"}]}, {"smiles": "COc1ccc2c(c1)[C@]13CCCC[C@@H]1[C@H](C2)N(C)CC3", "note": "[dextromethorphan]", "values": [{"measurement": "neuroprotective efficacy", "setting": "[4]", "result": "neuroprotective efficacy both in vitro and in vivo"}]}, {"smiles": "NCC(=O)O", "note": "[glycine]", "values": [{"measurement": "Kd", "setting": "[1]; used in Cheng and Prusoff equation, read-out: known affinity of glycine for the glycine binding site", "result": 0.1, "unit": "µM"}]}, {"smiles": "O=C(O)c1cc2ccccc2[nH]1", "note": "[indole-2-carboxylic acid]", "values": [{"measurement": "receptor binding affinity in vitro", "setting": "[1]; in words", "result": "relatively high receptor binding affinity in vitro"}, {"measurement": "penetration of the blood/brain barrier", "setting": "[2]", "result": "cannot penetrate the blood/brain barrier"}]}, {"smiles": "CNC1(c2ccccc2Cl)CCCCC1=O", "note": "(centres unmarked) [ketamine]", "values": [{"measurement": "neuroprotective efficacy", "setting": "[4]", "result": "neuroprotective efficacy both in vitro and in vivo"}]}]}
